Values joined by “and” are separate entries in the source; they are usually repeats but may differ in a detail not shown here. Identical values can stand only once.
Legend:
Format in all cases: cell-based
[1] = system: BAG6 on the plasma membrane of the human breast cancer cell line MDA-MB-231; test: expression level of BAG6, immunofluorescence staining and flow cytometry; settings: doxorubicin 200 nM, 48 hours, versus untreated control
Procedure: (§1) To explore whether treatment with the chemotherapy drug affects the expression of BAG6, HLA-G and B7-H6 on the cell membrane of tumor cells, the tumor cells used were human breast cancer cell line MDA-MB-231, human malignant brain tumor cell line DBTRG-05MG (hereinafter referred to as DBTRG), human pancreatic cancer cell line AsPC-1, and human ovarian cancer cell line SKOV3. The tumor cells used were all purchased from the American Type Culture Collection (ATCC). The human breast cancer cell line MDA-MB-231 is a triple-negative breast cancer cell line, that is, the hormone receptor (ER, PR) and HER-2 receptor thereof are negative, and the human breast cancer cell line MDA-MB-231 was cultured in RPMI culture medium including 10% fetal bovine serum (FBS). The human malignant brain tumor cell line DBTRG was cultured in DMEM culture medium including 10% FBS. The human pancreatic cancer cell line AsPC-1 was cultured in RPMI culture medium including 10% FBS. The human ovarian cancer cell line SKOV3 was cultured in McCoy's 5A culture medium including 10% FBS.

[2] = system: HLA-G on the plasma membrane of the human breast cancer cell line MDA-MB-231; test: expression level of HLA-G, flow cytometry; settings: doxorubicin 200 nM, 48 hours, versus untreated control
Procedure: as §1

[3] = system: B7-H6 on the plasma membrane of the human breast cancer cell line MDA-MB-231; test: expression level of B7-H6, flow cytometry; settings: doxorubicin 200 nM, 48 hours, versus untreated control
Procedure: as §1

[4] = system: BAG6 on the plasma membrane of the human ovarian cancer cell line SKOV3; test: expression level of BAG6, immunofluorescence staining and flow cytometry; settings: carboplatin 20 μM, 48 hours, versus untreated control
Procedure: as §1

[5] = system: HLA-G on the plasma membrane of the human ovarian cancer cell line SKOV3; test: expression level of HLA-G, flow cytometry; settings: carboplatin 20 μM, 48 hours, versus untreated control
Procedure: as §1

[6] = system: B7-H6 on the plasma membrane of the human ovarian cancer cell line SKOV3; test: expression level of B7-H6, flow cytometry; settings: carboplatin 20 μM, 48 hours, versus untreated control
Procedure: as §1

[7] = system: human malignant brain tumor cell line DBTRG; test: tumor cell death, Annexin V-FITC/PI flow cytometry (cytotoxicity); settings: group 1: chemotherapy drug alone, temozolomide 80 μg/mL, three independent trials
Procedure: The cells were subsequently incubated for 48 hours. Each type of the tumor cells was divided into six groups. In a control, the tumor cells were untreated. In a group 1, the tumor cells were treated with the chemotherapy drug. In a group 2, the tumor cells were treated with the parental primary T lymphocyte. In a group 3, the tumor cells are treated with the parental primary T lymphocyte and the chemotherapy drug. In a group 4, the tumor cells were treated with Example 1. In a group 5, the tumor cells were treated with Example 1 and the chemotherapy drug. […] In the group 4 and the group 5, the number of Example 1 treated was 1×10^5 cells. […] The treated cells of each group were stained with Annexin V-FITC and propidium iodide (PI), and the apoptosis and the death of the tumor cells were detected by the flow cytometry. The sum of the percentage of cells stained with Annexin V-FITC and/or PI were calculated to obtain the cytotoxicity. The results of the cytotoxicity were counted after three independent trials in each group.
The cells were subsequently incubated for 48 hours. […] The treated cells of each group were stained with Annexin V-FITC and PI, and the apoptosis and the death of the tumor cells were detected by the flow cytometry. The sum of the percentage of cells stained with Annexin V-FITC and/or PI were calculated to obtain the cytotoxicity. […]

COc1cccc2c1C(=O)c1c(O)c3c(c(O)c1C2=O)C[C@@](O)(C(=O)CO)C[C@@H]3O[C@H]1C[C@H](N)[C@H](O)[C@H](C)O1 [doxorubicin]
expression of BAG6 on the plasma membrane [1]: increase the expression of BAG6
expression of HLA-G on the plasma membrane [2]: increase the expression of HLA-G
expression of B7-H6 on the plasma membrane [3]: increase the expression of B7-H6

N.N.O=C([O-])C1(C(=O)[O-])CCC1.[Pt+2] [carboplatin]
expression of BAG6 on the plasma membrane [4]: increase the expression of BAG6
expression of HLA-G on the plasma membrane [5]: increase the expression of HLA-G
expression of B7-H6 on the plasma membrane [6]: increase the expression of B7-H6

Cn1nnc2c(C(N)=O)ncn2c1=O [temozolomide]
death rate [7]: 8.4033% and 14.9267% and 5.5450% and 11.7933% and 13.9750%

Reference: patent US20240374726A1, “BAG6 SPECIFIC CHIMERIC ANTIGEN RECEPTOR, NUCLEIC ACID, BAG6 SPECIFIC CHIMERIC ANTIGEN RECEPTOR EXPRESSION PLASMID, BAG6 SPECIFIC CHIMERIC ANTIGEN RECEPTOR EXPRESSING CELL, USE THEREOF, AND PHARMACEUTICAL COMPOSITION FOR TREATING CANCER” (China Medical University Hospital, priority 2023, published 2024)
